Measured values from publication PMC9841524, “Structure-Based Rational Design of Small α-Helical Peptides with Broad-Spectrum Activity against Multidrug-Resistant Pathogens” (Journal of Medicinal Chemistry, 2022).
Read-outs that look alike come from different tables or passages of the source. Where no end group is shown, it is not given here.

Tests used:
S. aureus (ATCC 29213) = experiment: MIC, standard microtiter dilution (CLSI); format: cell-based; conditions: broth microdilution (CLSI), CAMHB, 37 °C, 24 h
Protocol: (§1) Description of the characteristics and growth conditions of various bacterial strains used in the study are provided in the Supporting Information (Table S3). Antibacterial susceptibility testing was carried out using a standard microtiter dilution method recommended by the clinical and laboratory standard institute (CLSI) and measured as a minimum inhibitory concentration (MIC), the lowest peptide concentration that inhibited bacterial growth. Briefly, the overnight grown cultures in the recommended broth for each bacterial strain were diluted in cation-adjusted Mueller Hinton Broth (CAMHB) to give an inoculum of 10^6 colony-forming units (CFU)/mL. A 2-fold serially diluted test peptide solution (100 μL) was added to the microtiter plates. After adding bacterial suspension (100 μL), the plates were incubated at 37 °C for 24 h, and the MICs were determined. The same protocol was used to determine the MICs in the presence of salts and serum except using the media supplemented with various cationic salts (150 mM NaCl, 4.5 mM KCl, 6 mM NH4Cl, 1 mM MgCl2, and 2 mM CaCl2) or 25% FBS. The data was acquired from three independent assays performed in triplicate.
(§2) The bacterial strains employed in this study were obtained from the American Type Culture Collection (ATCC). Each strain was propagated as recommended by the ATCC, and each strain was stored as a frozen glycerol stock at -80°C. A bacterial colony was grown on the appropriate agar as indicated in Table S1 and was used to inoculate the appropriate broth. The culture was incubated at the appropriate conditions, as mentioned in Table S1. Following the incubation, the culture was diluted to an optical density 625 nm (OD625) of 0.1 in cation adjusted Mueller Hinton Broth (CAMHB), which is equivalent to 1 × 10^8 CFU/mL. The culture was further diluted to 1 × 10^6 CFU/mL, which was used to conduct the MIC determination assay. For the S. pneumoniae strains, CAMHB + 2.5% lysed horse blood was required for the assay. The strains with their […]
(§3) Table S3. Description of the characteristics and growth conditions of various bacterial strains

E. coli (ATCC 25922) = conditions: broth microdilution (CLSI), CAMHB, 37 °C, 24 h
Protocol: as §1, §2, §3

MRSA (ATCC BAA-1556) = conditions: broth microdilution (CLSI), CAMHB, 37 °C, 24 h
Protocol: as §1, §2, §3

[1] = test system: P. aeruginosa (ATCC 27883); experiment: MIC, standard microtiter dilution (CLSI); format: cell-based, Pseudomonas aeruginosa; conditions: broth microdilution (CLSI), CAMHB, 37 °C, 24 h
Protocol: as §1, §2, §3

[2] = test system: K. pneumoniae (ATCCBAA-1705); experiment: MIC, standard microtiter dilution (CLSI); format: cell-based, Klebsiella pneumoniae; conditions: broth microdilution (CLSI), CAMHB, 37 °C, 24 h
Protocol: as §1, §2, §3

[3] = test system: human red blood cells (hRBCs); experiment: Hemolytic assay; format: cell-based; conditions: 2 h, 37 °C
Protocol: The hemolytic activity of all peptides (1a–8d) was determined using hRBC. The assay was conducted by adding 75 μL of 2-fold serially diluted peptides to 75 μL of hRBC suspension (4% in PBS). The plates were incubated for 2 h at 37 °C without agitation. In order to determine the hemolysis at each tested concentration of peptides, the plate was centrifuged, and 100 μL of the supernatant was transferred to another 96-well plate to determine hemoglobin release spectrophotometrically at 567 nm. Percent hemolysis was calculated by the following formula [drawing 1] where A represents the absorbance of the peptide sample at 567 nm and A0 and At represent zero percent and 100% hemolysis determined in phosphate buffer saline and 1% Triton X-100, respectively.

[4] = 10^6 CFU/mL, highest MIC of three independent experiments in triplicate
[5] = hRBC suspension 4% in PBS, hemoglobin release at 567 nm, 1% Triton X-100 = 100%
[6] = value in parentheses (μM), hRBC 4% in PBS, 567 nm

| Substance | MIC, S. aureus (ATCC 29213) (S. aureus (ATCC 29213); [4]) | MIC, S. aureus (ATCC 29213) (S. aureus (ATCC 29213); value in parentheses (μM)) | MIC, E. coli (ATCC 25922) (E. coli (ATCC 25922); [4]) | MIC, E. coli (ATCC 25922) (E. coli (ATCC 25922); value in parentheses (μM)) | MIC, MRSA (ATCC BAA-1556) (MRSA (ATCC BAA-1556); [4]) | MIC, MRSA (ATCC BAA-1556) (MRSA (ATCC BAA-1556); value in parentheses (μM)) | MIC, P. aeruginosa (ATCC 27883) [1, 4] | MIC, P. aeruginosa (ATCC 27883) ([1]; value in parentheses (μM)) | MIC, K. pneumoniae (ATCCBAA-1705) [2, 4] | MIC, K. pneumoniae (ATCCBAA-1705) ([2]; value in parentheses (μM)) | HC50 (concentration at which 50% hemolysis was observed) [3, 5] | HC50 (concentration at which 50% hemolysis was observed) [3, 6] |
| --- | --- | --- | --- | --- | --- | --- | --- | --- | --- | --- | --- | --- |
| H-AAWRRWWRRA-NH2 [4h] | > 100 µg/mL | > 70.74 µM | > 100 µg/mL | > 70.74 µM | > 100 µg/mL | > 70.74 µM | > 100 µg/mL | > 70.74 µM | > 100 µg/mL | > 70.74 µM | > 500 µg/mL | > 353.69 µM |
| RWWRRAWR-NH2 [2b] | > 100 µg/mL | > 78.65 µM | > 100 µg/mL | > 78.65 µM | > 100 µg/mL | > 78.65 µM | > 100 µg/mL | > 78.65 µM | > 100 µg/mL | > 78.65 µM | > 500 µg/mL | > 393.23 µM |
| Ac-RWIRRWIRWWR-NH2 [5e] | 50 µg/mL | 27.61 µM | 100 µg/mL | 55.21 µM | 50 µg/mL | 27.61 µM | 50 µg/mL | 27.61 µM | 100 µg/mL | 55.21 µM | 60 µg/mL | 33.13 µM |
| RWARRWWR-NH2 [2c] | > 100 µg/mL | > 78.65 µM | > 100 µg/mL | > 78.65 µM | > 100 µg/mL | > 78.65 µM | > 100 µg/mL | > 78.65 µM | > 100 µg/mL | > 78.65 µM | > 500 µg/mL | > 393.23 µM |
| RWARRWWRA-NH2 [3c] | > 100 µg/mL | > 74.48 µM | > 100 µg/mL | > 74.48 µM | > 100 µg/mL | > 74.48 µM | > 100 µg/mL | > 74.48 µM | > 100 µg/mL | > 74.48 µM | > 500 µg/mL | > 372.42 µM |
| RRWWRRW-NH2 [1b] | 50 µg/mL | 41.65 µM | > 100 µg/mL | > 83.30 µM | 100 µg/mL | 83.30 µM | > 100 µg/mL | > 83.30 µM | > 100 µg/mL | > 83.30 µM | > 500 µg/mL | > 416.52 µM |
| H-RWWRRWR-NH2 [1e] | 100 µg/mL | 83.30 µM | > 100 µg/mL | > 83.30 µM | 100 µg/mL | 83.30 µM | > 100 µg/mL | > 83.30 µM | > 100 µg/mL | > 83.30 µM | > 500 µg/mL | > 416.52 µM |
| H-RAWRRWWARA-NH2 [4g] | > 100 µg/mL | > 70.74 µM | > 100 µg/mL | > 70.74 µM | > 100 µg/mL | > 70.74 µM | > 100 µg/mL | > 70.74 µM | > 100 µg/mL | > 70.74 µM | > 500 µg/mL | > 353.69 µM |
| RWWRRAWRA-NH2 [3a] | > 100 µg/mL | > 74.48 µM | > 100 µg/mL | > 74.48 µM | > 100 µg/mL | > 74.48 µM | > 100 µg/mL | > 74.48 µM | > 100 µg/mL | > 74.48 µM | > 500 µg/mL | > 372.42 µM |
| AWWRRAWRR-NH2 [3f] | > 100 µg/mL | > 74.48 µM | > 100 µg/mL | > 74.48 µM | > 100 µg/mL | > 74.48 µM | > 100 µg/mL | > 74.48 µM | > 100 µg/mL | > 74.48 µM | > 500 µg/mL | > 372.42 µM |
